Legend:
[1] = system: Npc1‐null Chinese hamster ovary cells; assay: Measurement of intracellular cholesterol in NPC model cells; assay type: cell-based; conditions: 24 h exposure; for EC50: concentrations up to 1 mM, read-out: EC50, reduction of UC levels accumulated in Npc1‐null cells
Experimental: WT and Npc1‐null Chinese hamster ovary cells developed previously[34] were used. The cells were grown in a culture medium consisting of a 1:1 mixture of Dulbecco's modified Eagle's medium (DMEM) and F‐12 (Life Technologies) supplemented with 10% fetal bovine serum (FBS; Thermo Fisher Scientific, Inc.). The cells were maintained at 37°C in a saturated humidity atmosphere of 95% air and 5% CO2.
The measurement of intracellular cholesterol levels was performed in accordance with our previously developed method[35] with minor modification. Cells were pre‐incubated for 24 h and then exposed to a medium containing CD derivatives for 24 h. Thereafter, the cells were lysed, and aliquots were taken for cholesterol and protein measurements. Cholesterol was extracted from the cell lysate using chloroform, 2‐propanol and NP‐40 substitute (7:11:0.1), and the solution was then centrifuged (15 000 × g, 10 min, 4°C). The chloroform layer was evaporated, and the residues were dissolved in a solvent consisting of 2‐propanol, polyoxyethylene alkyl ether and polyoxyethylene lauryl ether (87:10:3). The dissolved samples were divided into two portions—one was incubated with esterase to measure total cholesterol (TC), and the other was incubated without esterase to measure UC. The cholesterol content was measured with a Determiner L FC kit. The EC level was calculated by deducting the UC level from the TC level. Intracellular cholesterol content was normalized by the total protein concentration as determined with a Pierce BCA Protein Assay Kit (Thermo Fisher Scientific, Inc.).

[2] = system: Npc1 homozygous mutant (Npc1 ^−/−) mice; assay: Intracerebroventricular administration of CD derivatives in NPC model mice; assay type: in vivo; conditions: ICV 21.4 μmol/kg once at 4 weeks of age
Experimental: (§1) Male and female Npc1 homozygous mutant (BALB/cNctr‐Npc1 ^m1N, Npc1 ^−/−) mice,[36] kindly donated by Prof. Kousaku Ohno and Dr. Katsumi Higaki, were used as a murine model of NPC. Age‐matched WT mice were used as controls. The mice were bred and housed under specific pathogen‐free conditions in the Center for Animal Resources and Development, Kumamoto University. The mice were housed in cages in a room under controlled temperature (24°C) and a 12/12‐h light/dark cycle, and provided with free access to food and water. The animal experiments were performed at the Department of Clinical Chemistry and Informatics, Graduate School of Pharmaceutical Sciences, Kumamoto University. CD derivatives were dissolved in distilled water, and the osmotic pressure was adjusted with sodium chloride to near physiological osmolality. The pH was adjusted to 7.4 using sodium hydroxide, and the solution was filtered with an Advantec DISMIC‐13CP 0.45‐μm filter (Toyo Roshi Kaisha, Ltd.). […] The survival times were recorded based on the day when the endpoint was reached, defined as death or the inability to consume food or drink independently.
Organ samples were fixed in 4% buffered paraformaldehyde immediately after collection and then embedded in paraffin. […] Histopathological changes were photographed and analyzed by microscopy (BioRevo BZ‐9000; Keyence Co.). […]

WT mice [3] = assay: Systemic biocompatibility of subcutaneous CD derivatives in mice; assay type: in vivo; conditions: SC 5.7 mmol/kg, 24 h later
Experimental: as §1
Organ samples were fixed in 4% buffered paraformaldehyde immediately after collection and then embedded in paraffin. […] Histopathological changes were photographed and analyzed by microscopy (BioRevo BZ‐9000; Keyence Co.).

WT mice [4] = assay: Auditory brainstem response (ABR) after CD derivatives in mice; assay type: in vivo; conditions: 1 week after, 4-32 kHz
Experimental: Male and female Npc1 homozygous mutant (BALB/cNctr‐Npc1 ^m1N, Npc1 ^−/−) mice,[36] kindly donated by Prof. Kousaku Ohno and Dr. Katsumi Higaki, were used as a murine model of NPC. Age‐matched WT mice were used as controls. The mice were bred and housed under specific pathogen‐free conditions in the Center for Animal Resources and Development, Kumamoto University. The mice were housed in cages in a room under controlled temperature (24°C) and a 12/12‐h light/dark cycle, and provided with free access to food and water. The animal experiments were performed at the Department of Clinical Chemistry and Informatics, Graduate School of Pharmaceutical Sciences, Kumamoto University. CD derivatives were dissolved in distilled water, and the osmotic pressure was adjusted with sodium chloride to near physiological osmolality. The pH was adjusted to 7.4 using sodium hydroxide, and the solution was filtered with an Advantec DISMIC‐13CP 0.45‐μm filter (Toyo Roshi Kaisha, Ltd.). Intracerebroventricular administration was performed using stereotaxic instruments (IMPACT‐1000C and KDS 310 Plus; Muromachi Kikai Co., Ltd.) under anaesthesia (medetomidine:midazolam:butorphanol, 0.3:4.0:5.0 mg/kg, intraperitoneally). The subcutaneous injection volume was 20 mL/kg for all experimental groups. The survival times were recorded based on the day when the endpoint was reached, defined as death or the inability to consume food or drink independently.
Auditory thresholds were measured using auditory brainstem response (ABR) System 3 (Tucker‐Davis Technologies). The animals were anaesthetized by intraperitoneal administration of xylazine and ketamine‐HCl in saline. Electrodes were placed beneath the pinna of the treated ear and at the vertex just below the surface of the skin, and the ground electrode was then placed under the contralateral ear. An average of 512 sweeps was calculated at 4, 8, 12, 20 and 32 kHz. The stimulus levels near the threshold were varied in 5‐dB steps, and the threshold was defined as the lowest level at which waves in the ABR could be clearly detected by visual inspection.

[5] = UC solubility analysis; binding constants of 1:1 and 2:1 CD:UC complexes; assay type: physicochemical; conditions: as a function of CD concentration, 37°C
Experimental: An excess of UC (10 mg) was added to each concentration of CD derivative in distilled water and shaken at 37°C for 3 h at 180 rpm. After equilibrium was attained (Figure S1), an aliquot was filtered through a Millex‐HP PES 0.45‐μm filter (Merck Millipore Ltd.). The filtrate was mixed and shaken for 10 min with an appropriate volume of chloroform/methanol (2:1, v/v). After centrifugation (1500 × g, 10 min, 4°C), the chloroform phase was recovered and evaporated. The residue was dissolved in a solvent consisting of 2‐propanol, polyoxyethylene alkyl ether and polyoxyethylene lauryl ether (87:10:3), and the concentration of UC was measured with a Determiner L FC kit (Kyowa Hakko Kirin Co., Ltd.) on a microplate reader (Tecan Group, Ltd.). Three replicate samples were performed. The binding constants of the 1:1 and the 2:1 CD:UC complexes were calculated according to a previously established method.[26]

α‐glucosidase = conditions: cited from earlier work

Substance | EC50 [1] [µM] | ABR threshold (WT mice [4]; single SC 5.7 mmol/kg) | also measured
2‐hydroxybutyl‐β‐CD [HB‐β‐CD] | 11.6 | – | –
2‐hydroxybutyl‐γ‐CD [HB‐γ‐CD] | 11.5 | – | body weight decline [2]: mitigated; lifespan and median survival time [2]: drastically prolonged; total protein concentration in BALF (WT mice [3]): significant increases
2‐hydroxypropyl‐α‐CD [HP‐α‐CD] | – | did not cause any change | ABR threshold (WT mice [4]; single ICV 21.4 μmol/kg): did not cause any change; UC solubilization profile in aqueous solution [5]: negligible; EC/TC ratio ([1]; Npc1‐null cells, above 0.1 mM): significantly diminished; intracellular UC levels ([1]; Npc1‐null cells, concentration‐dependent, 1 mM): significantly diminished
2‐hydroxypropyl‐β‐CD [HP‐β‐CD, reference compound] | 40.3 | significantly increased | –
2‐hydroxypropyl‐γ‐CD [HP‐γ‐CD] | 69.6 | only a moderate increase | –
mono‐6‐O‐α‐glucosyl‐β‐CD [G1‐β‐CD] | 59.6 | – | –
mono‐6‐O‐α‐glucosyl‐γ‐CD [G1‐γ‐CD] | 156 | – | –
mono‐6‐O‐α‐maltosyl‐β‐CD [G2‐β‐CD] | 56 | – | biodegradation to G1‐β‐CD in whole blood (α‐glucosidase): rapidly biodegraded
mono‐6‐O‐α‐maltosyl‐γ‐CD [G2‐γ‐CD] | 182 | – | –

Reference: paper PMC10449817, “Different solubilizing ability of cyclodextrin derivatives for cholesterol in Niemann–Pick disease type C treatment” (Clinical and Translational Medicine, 2023)
